Source: patent US11109593B2, “Isoxazolin-5-one derivative and herbicide containing same as active ingredient” (HOKKO CHEMICAL INDUSTRY CO., LTD., priority 2017, dated 2021)

Assays:
Format in all cases: in vivo
[1] = tested on: broad leaf weeds (Lindernia pyxidaria and Monochoria vaginalis); assay: Test Example 1: herbicidal effect test by treatment of rice paddy soil (immediately after seeding); settings: 120 g/10a active ingredient, dry weight vs untreated area, 14 days after treatment
Method in brief: (§1)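 Paddy soil in pots with compound fertilizer, puddled; 30 seeds per species sown at 0–1 cm, flooded ~3 cm, greenhouse. Water-diluted emulsions dropped onto water immediately after seeding at 120 g active ingredient per 10 ares, duplicate. Herbicidal rate (%) from plant dry weight versus untreated, 14 days after treatment.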

Scirpus juncoides [2] = assay: as above; settings: 120 g/10a active ingredient, dry weight vs untreated area, 14 days after treatment
Method in brief: as §1

Echinochloa crus-galli [3] = assay: as above; settings: 120 g/10a active ingredient, dry weight vs untreated area, 14 days after treatment
Method in brief: as §1

Amaranthus viridis [4] = assay: Test Example 4: herbicidal effect test by treatment of leave and stem in dry field farming (seven days after seeding); settings: 120 g/10a active ingredient; emulsion sprayed seven days after seeding; evaluated 14 days after treatment
Method in brief: (§2)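 Weeds were seeded at 20 seeds per species into the top 1 cm of alluvial upland soil in pots, then sprayed 7 days after seeding with water-diluted emulsifiable concentrate at 100 L/10 a, giving 120 g active ingredient/10 a. Duplicate pots; herbicidal rate (%) was 14 days post-treatment, from dry weight versus untreated.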

southern crabgrass [5] = assay: as above; settings: 120 g/10a active ingredient; emulsion sprayed seven days after seeding; evaluated 14 days after treatment
Method in brief: as §2

Echinochloa crus-galli [6] = assay: as above; settings: 120 g/10a active ingredient; emulsion sprayed seven days after seeding; evaluated 14 days after treatment
Method in brief: as §2

Chenopodium album [7] = assay: as above; settings: 120 g/10a active ingredient; emulsion sprayed seven days after seeding; evaluated 14 days after treatment
Method in brief: as §2

[8] = tested on: broad leaf weeds (Lindernia pyxidaria and Monochoria vaginalis); assay: Test Example 2: herbicidal effect test by treatment during growing period in paddy rice cultivation (seven days after seeding); settings: 120 g/10a active ingredient, assessed 14 days after treatment, dry weight vs untreated area
Method in brief: (§3)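 Greenhouse flooded-pot test, seeds sown in puddled paddy soil; emulsion applied into water 7 d after seeding, 120 g a.i./10 a. Dry-weight-based herbicidal rate at 14 d, n=2.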

Scirpus juncoides [9] = assay: as above; settings: 120 g/10a active ingredient, assessed 14 days after treatment, dry weight vs untreated area
Method in brief: as §3

Echinochloa crus-galli [10] = assay: as above; settings: 120 g/10a active ingredient, assessed 14 days after treatment, dry weight vs untreated area
Method in brief: as §3

Amaranthus viridis [11] = assay: Test Example 3: herbicidal effect test by treatment of dry field farming soil (one day after seeding); settings: 120 g/10a active ingredient, evaluated 14 days after treatment
Method in brief: (§4)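 Compound emulsions are sprayed on the soil surface one day after sowing (120 g a.i. per 10 ares) before weeds emerge. Effect is expressed as percent dry-weight reduction versus untreated controls 14 days post-treatment.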

southern crabgrass [12] = assay: as above; settings: 120 g/10a active ingredient, evaluated 14 days after treatment
Method in brief: as §4

Echinochloa crus-galli [13] = assay: as above; settings: 120 g/10a active ingredient, evaluated 14 days after treatment
Method in brief: as §4

Chenopodium album [14] = assay: as above; settings: 120 g/10a active ingredient, evaluated 14 days after treatment
Method in brief: as §4

Structure (SMILES) | Herbicidal rate (%) Lindernia pyxidaria [1] | Herbicidal rate (%) Monochoria vaginalis [1] | Herbicidal rate (%) Scirpus juncoides (Scirpus juncoides [2]) | Herbicidal rate (%) Echinochloa crus-galli (Echinochloa crus-galli [3]) | herbicidal effect (herbicidal rate), Amaranthus viridis (Amaranthus viridis [4]) | herbicidal effect (herbicidal rate), southern crabgrass (southern crabgrass [5]) | herbicidal effect (herbicidal rate), Echinochloa crus-galli (Echinochloa crus-galli [6]) | herbicidal effect (herbicidal rate), Chenopodium album (Chenopodium album [7]) | Herbicidal rate (%) Lindernia pyxidaria [8] | Herbicidal rate (%) Monochoria vaginalis [8] | Herbicidal rate (%) Scirpus juncoides (Scirpus juncoides [9]) | Herbicidal rate (%) Echinochloa crus-galli (Echinochloa crus-galli [10]) | herbicidal rate, Amaranthus viridis (Amaranthus viridis [11]) | herbicidal rate, southern crabgrass (southern crabgrass [12]) | herbicidal rate, Echinochloa crus-galli (Echinochloa crus-galli [13]) | herbicidal rate, Chenopodium album (Chenopodium album [14])
C=CCOC(=O)N(c1ccccc1Cc1c(C)n(C(C)COC)oc1=O)S(=O)(=O)C(F)(F)F (centres unmarked) [Compound 1-708] | 90% | 90% | 90% | 90% | 40% | 90% | 90% | 40% | 90% | 90% | 90% | 90% | 90% | 90% | 90% | 90%
CCC(C)n1oc(=O)c(Cc2ccccc2N(C(=O)OCc2ccccc2)S(=O)(=O)C(F)(F)F)c1C (single isomer, unassigned) [1-783 (TLC bottom)] | 90% | 90% | 90% | 90% | 40% | 90% | 90% | 40% | 90% | 90% | 90% | 90% | 90% | 90% | 90% | 90%
Cc1c(Cc2ccc(Cl)cc2NS(=O)(=O)C(F)(F)F)c(=O)on1C(C)C [Compound 1-37] | 80% | 40% | 90% | 60% | 40% | 40% | 90% | 80% | 40% | 40% | 0% | 40% | 0% | 40% | 70% | 40%
CCCC(C)n1oc(=O)c(Cc2ccccc2N(S(=O)(=O)C(F)(F)F)S(=O)(=O)C(F)(F)F)c1C (centres unmarked) [Compound 1-970] | 100% | 100% | 100% | 100% | 60% | 70% | 90% | 40% | 70% | 90% | 90% | 100% | 60% | 90% | 90% | 40%
Cc1c(Cc2ccccc2N(C(=O)C2CCCCC2)S(=O)(=O)C(F)(F)F)c(=O)on1C(C)(C)C [Compound 1-431] | 90% | 90% | 90% | 90% | 40% | 90% | 90% | 40% | 90% | 90% | 90% | 90% | 90% | 90% | 90% | 90%
CCC(=O)N(c1ccccc1Cc1c(C)n(C(C)(C)C)oc1=O)S(=O)(=O)C(F)(F)F [Compound 1-315] | 90% | 90% | 90% | 90% | 40% | 90% | 90% | 40% | 90% | 90% | 90% | 90% | 90% | 90% | 90% | 90%
Cc1c(Cc2ccccc2N(S(=O)(=O)C(F)(F)F)S(=O)(=O)C(F)(F)F)c(=O)on1CCOCC(C)C [Compound 1-1000] | 80% | 90% | 100% | 100% | 40% | 40% | 60% | 0% | 40% | 70% | 90% | 90% | 40% | 80% | 60% | 40%
COCC(C)n1oc(=O)c(Cc2ccccc2N(S(C)(=O)=O)S(=O)(=O)C(F)(F)F)c1C (centres unmarked) [Compound 1-899] | 90% | 90% | 90% | 90% | 40% | 90% | 90% | 40% | 90% | 90% | 90% | 90% | 90% | 90% | 90% | 90%
